According to patent US5958445A, “Oral Formulations of S(+)-etodolac” (priority 1998, dated 1999):
In brackets after ≈: the same amount, converted by molar mass. Like-named read-outs stand apart in the source and are kept apart here. Values belong to the compound of their own block, whether it stands above or below them.

Columns and labels:
[1] = physchem; assay type: physicochemical
Protocol: Equilibrium solubility data for S(+)-etodolac based on pH was determined by placing excess amounts of the S(+)-etodolac and about 5 mL of the dissolution medium in screw-capped vials which were covered with aluminum foil and then tumbled in a 25° C. water bath for 3 days. Slurries were filtered through […] Gelman disposable filters. Filtrates were appropriately diluted with their dissolution medium and analyzed by a Cary 210 UV-VIS spectrophotometer at 278 nm.
The dissolution media used for the pH-solubility profile and ionic strength effect were HCl, HAc--NaAc, KH2 PO4 --NaOH, K2 CO3 --KHCO3, H3 BO3 --NaOH, and NaOH solutions, where the ionic strengths of media were adjusted to be 0.1 by the addition of NaCl. Those solvent systems used for cosolvent solubilization were various ratios of PEG 400, ethanol, triethanolamine (TEA), and dimethylacetamide (DMA) to aqueous solutions. pH values of the slurries were measured before and after equilibrium.

[2] = J. Med. Chem. 1983, 26, 1778-1780; cited from earlier work
[3] = Solubility in words (Physicians' Desk Reference and description); assay type: physicochemical; conditions: acid form
[4] = in vivo; cited from earlier work
[5] = Physicians' Desk Reference, 1995; cited from earlier work
[6] = test system: animal models; conditions: in vivo; cited from earlier work
[7] = test system: acute pain; conditions: cited from earlier work
[8] = 20% ethanol, organic solvent or mixture
[9] = 20% peg 400, organic solvent or mixture
[10] = 40% ethanol, organic solvent or mixture
[11] = 40% peg 400, organic solvent or mixture
[12] = 60% ethanol, organic solvent or mixture
[13] = 60% peg 400, organic solvent or mixture
[14] = 80% ethanol, organic solvent or mixture
[15] = 80% peg 400, organic solvent or mixture
[16] = 100% ethanol, organic solvent or mixture
[17] = 100% triethanolamine, organic solvent or mixture

- solubility at 72 h ([1]; 0.001 n hcl, pH 3.24): 0.073 mg/mL (≈ 0.254 mM)
- solubility at 72 h ([1]; 0.001 n naoh, pH 8.5): 32.3 mg/mL (≈ 112 mM)
- solubility at 72 h ([1]; 0.01 m phosphate buffer, pH 6.4, aqueous buffer): 4.56 mg/mL (≈ 15.9 mM)
- solubility at 72 h ([1]; 0.01 m phosphate buffer, pH 6.63, aqueous buffer): 7.81 mg/mL (≈ 27.2 mM)
- solubility at 72 h ([1]; 0.04 m borate buffer, pH 8.61, aqueous buffer): 11.6 mg/mL (≈ 40.4 mM)
- solubility at 72 h ([1]; 0.04 m phosphate buffer, pH 8.59, aqueous buffer): 15.3 mg/mL (≈ 53.1 mM)
- solubility at 72 h ([1]; 0.1 m acetate buffer, pH 4.03, aqueous buffer): 0.093 mg/mL (≈ 0.324 mM)
- solubility at 72 h ([1]; 0.1 m acetate buffer, pH 4.41, aqueous buffer): 0.12 mg/mL (≈ 0.418 mM)
- solubility at 72 h ([1]; 0.1 m phosphate buffer, pH 4.63, aqueous buffer): 0.193 mg/mL (≈ 0.672 mM)
- solubility at 72 h ([1]; 0.1 m phosphate buffer, pH 4.98, aqueous buffer): 0.263 mg/mL (≈ 0.915 mM)
- solubility at 72 h ([1]; 0.1 m phosphate buffer, pH 5.82, aqueous buffer): 1.21 mg/mL (≈ 4.22 mM)
- solubility at 72 h ([1]; 0.1 n hcl, pH 1.14): 0.08 mg/mL (≈ 0.278 mM)
- solubility at 72 h ([1]; 0.1 n hcl, pH 2.13): 0.08 mg/mL (≈ 0.278 mM)
- solubility at 72 h ([1]; 0.1 n naoh, pH 7.15): 29.4 mg/mL (≈ 102 mM)
- solubility at 72 h ([1]; 0.2 n naoh, pH 7.3): 58.8 mg/mL (≈ 205 mM)
- solubility at 72 h ([1]; 2% triethanolamine): 39.4 mg/mL (≈ 137 mM)
- solubility at 72 h ([1]; 4% triethanolamine): 77.8 mg/mL (≈ 271 mM)
- solubility at 72 h ([1]; 6% triethanolamine): 126 mg/mL (≈ 439 mM)
- solubility at 72 h ([1]; 8% triethanolamine): 235 mg/mL (≈ 816 mM)
- solubility at 72 h ([1]; 10% dimethylacetamide): 0.468 mg/mL (≈ 1.63 mM)
- solubility at 72 h ([1]; 10% triethanolamine): 295 mg/mL (≈ 1030 mM)
- solubility at 72 h ([1]; 20% dimethylacetamide): 1.25 mg/mL (≈ 4.34 mM)
- solubility at 72 h [1, 8]: 0.412 mg/mL (≈ 1.43 mM)
- solubility at 72 h [1, 9]: 0.663 mg/mL (≈ 2.31 mM)
- solubility at 72 h ([1]; 30% dimethylacetamide): 3.56 mg/mL (≈ 12.4 mM)
- solubility at 72 h ([1]; 40% dimethylacetamide): 9.96 mg/mL (≈ 34.6 mM)
- solubility at 72 h [1, 10]: 3.53 mg/mL (≈ 12.3 mM)
- solubility at 72 h [1, 11]: 3.06 mg/mL (≈ 10.6 mM)
- solubility at 72 h ([1]; 50% dimethylacetamide): 89.1 mg/mL (≈ 310 mM)
- solubility at 72 h ([1]; 60% dimethylacetamide): 256 mg/mL (≈ 892 mM)
- solubility at 72 h [1, 12]: 43.7 mg/mL (≈ 152 mM)
- solubility at 72 h [1, 13]: 16.3 mg/mL (≈ 56.6 mM)
- solubility at 72 h ([1]; 80% dimethylacetamide): 419 mg/mL (≈ 1460 mM)
- solubility at 72 h [1, 14]: 126 mg/mL (≈ 439 mM)
- solubility at 72 h [1, 15]: 643 mg/mL (≈ 2240 mM)
- solubility at 72 h ([1]; 100% dimethylacetamide, organic solvent or mixture): 758 mg/mL (≈ 2640 mM)
- solubility at 72 h [1, 16]: 284 mg/mL (≈ 987 mM)
- Solubility ([1]; 100% peg 400, 72 h): 3460. mg/mL
- solubility at 72 h [1, 17]: 81.7 mg/mL (≈ 284 mM)
- solubility in alcohols, dimethyl sulfoxide, propylene glycol and aqueous polyethylene glycols [3]: soluble
SMILES: CCc1cccc2c3c([nH]c12)[C@](CC)(CC(=O)O)OCC3 [S(+)-etodolac, S(+) 1,8-diethyl-1,3,4,9-tetrahydropyrano[3,4-b]indole-1-acetic acid]
- share of the effects of etodolac due to the enantiomer [2]: virtually all of the effects of etodolac are due to the S(+) enantiomer

SMILES: CCc1cccc2c3c([nH]c12)[C@@](CC)(CC(=O)O)OCC3 [R(-) etodolac]
- certain purported adverse effects associated with the racemic mixture [4]: substantially reduces

- solubility at 72 h ([1]; 2% triethanolamine): 37.7 mg/mL (≈ 131 mM)
- solubility at 72 h ([1]; 4% triethanolamine): 75.9 mg/mL (≈ 264 mM)
- solubility at 72 h ([1]; 6% triethanolamine): 122 mg/mL (≈ 423 mM)
- solubility at 72 h ([1]; 8% triethanolamine): 226 mg/mL (≈ 785 mM)
- solubility at 72 h ([1]; 10% dimethylacetamide): 0.468 mg/mL (≈ 1.63 mM)
- solubility at 72 h ([1]; 10% triethanolamine): 294 mg/mL (≈ 1020 mM)
- solubility at 72 h ([1]; 20% dimethylacetamide): 0.956 mg/mL (≈ 3.33 mM)
- solubility at 72 h [1, 8]: 0.279 mg/mL (≈ 0.971 mM)
- solubility at 72 h [1, 9]: 0.905 mg/mL (≈ 3.15 mM)
- solubility at 72 h ([1]; 30% dimethylacetamide): 2.99 mg/mL (≈ 10.4 mM)
- solubility at 72 h ([1]; 40% dimethylacetamide): 7.28 mg/mL (≈ 25.3 mM)
- solubility at 72 h [1, 10]: 2.33 mg/mL (≈ 8.13 mM)
- solubility at 72 h [1, 11]: 3.58 mg/mL (≈ 12.5 mM)
- solubility at 72 h ([1]; 50% dimethylacetamide): 34.9 mg/mL (≈ 122 mM)
- solubility at 72 h ([1]; 60% dimethylacetamide): 52.1 mg/mL (≈ 181 mM)
- solubility at 72 h [1, 12]: 23.8 mg/mL (≈ 82.7 mM)
- solubility at 72 h [1, 13]: 20.2 mg/mL (≈ 70.3 mM)
- solubility at 72 h ([1]; 80% dimethylacetamide): 2630 mg/mL (≈ 9160 mM)
- solubility at 72 h [1, 14]: 102 mg/mL (≈ 354 mM)
- solubility at 72 h [1, 15]: 152 mg/mL (≈ 531 mM)
- Solubility ([1]; 100% dimethylacetamide, 72 h): 4734. mg/mL
- solubility at 72 h [1, 16]: 234 mg/mL (≈ 815 mM)
- solubility at 72 h ([1]; 100% peg 400, organic solvent or mixture): 1730 mg/mL (≈ 6030 mM)
- solubility at 72 h [1, 17]: 102 mg/mL (≈ 355 mM)
SMILES: CCc1cccc2c3c([nH]c12)C(CC)(CC(=O)O)OCC3 (racemic) [etodolac, (±) 1,8-diethyl-1,3,4,9-tetrahydropyrano[3,4-b]indole-1-acetic acid]
- solubility in alcohols, chloroform, dimethyl sulfoxide and aqueous polyethylene glycol [5]: soluble
- solubility in water [5]: insoluble
- activities in animal models [6]: exhibits anti-inflammatory, analgesic, and antipyretic activities
- symptom relief for acute pain lasting ([7]; single dose of 200 mg): 4 to 5 h
- symptom relief for acute pain lasting ([7]; single dose of 400 mg): 5 to 6 h
